“Also recorded” adds a separate entry of the source. Where two headings read alike, the source gives them in different places.
Tests used:
[1] = test system: Walker 256 L-Pam tumor cell; experiment: Walker 256 L-Pam tumor cell attachment to virally transformed endothelial cell monolayer (RCE-T1); type: cell-based, rat; conditions: 0.04 mg/ml; for effect on tumor cell adhesion to endothelial cell monolayer (in words): thirty minutes preincubation; for inhibition at 40 µg/mL: Rattus norvegicus, Walker 256, 1 h, 1 h plating, x ± SEM, n = 4, read-out: % Inhibition vs Control (attachment to endothelial cells)
Description: Walker ^256 L-Pam tumor cells were plated at approximately 5×10^5 cells/flask. The cells were labelled with ^125 I-UDR (iodinated uridine deoxyribonucleic acid) at 0.5 microcuries/ml media (5.0 microcurie/flask). Cells were incubated for approximately 24 hours and the cell count/flask was determined to be 8.14×10^5 cell/flask. The cells from each flask were counted (gamma counter) and found to have an average of 0.24 cpm/cell.
Platelet enhanced tumor cell attachment to plastic was tested using four conditions: tumor cell alone (Condition A), tumor cells plus washed platelets (Condition B), tumor cells plus platelet poor plasma (Condition C) and tumor cells, washed platelets and platelet poor plasma (Condition D).
Walker 256 L-Pam tumor cells obtained from culture are radiolabeled with ^125 I-UDR as described previously. The radiolabeled cells are removed from T-75 flasks with trypsin (2 milliliters of 0.25% trypsin and 0.01% EDTA) in MEM. After two minutes, the flasks are washed 3X with trypsin "quench," 10% fetal calf serum in MEM, to quench and remove the trypsin in order to prevent cell lysis. The tumor cells are removed from the flasks in MEM and adjusted to 2.5×10^5 cells /milliliter. One hundred microliters of the tumor cell suspension (2.5×10^4 cells) were plated in […] tissue culture wells (Costar) and overlaid with 250 microliters of Wash Solution #2 (see Platelet Prep). The cells were incubated at room temperature (approximately 22° C.) for 5 minutes. Following this incubation 10 microliters of 7.35 mg/ml CaCl2 were added to the culture wells, 10 microliters of platelet poor plasma (diluted 1:32 with platelet Wash Solution #2) were added to culture wells for Conditions C and D and 250 microliters of washed platelets (3×10^8 /ml final concentration) were added to culture wells for Conditions B and D. Where appropriate, Wash Solution #2 was added to wells (Conditions A and C) so that all wells had the same final volume of solutions. The wells were incubated for one hour at 37° C. After the one hour incubation, the media containing any unattached tumor cells were removed by aspiration and then the wells were washed 2X with 1 ml of sodium phosphate buffer (PBS). The adhering cells were removed by trypsinization (as described above) and counts per wells determined using a gamma counter. Results were determined as total cpm plated per well.
Platelet enhanced tumor cell attachment to a virally transformed endothelial cell monolayer (on plastic wells) was also tested. The experimental protocal utilized was similar to that described above. The only significant difference is that in the above assay the floor of each incubation well is the plastic material of the plate, and in these assays, that plastic floor is covered with a confluent monolayer of virally transformed rat cerebral microvascular endothelial cells. The cells were prepared and plated as described in detail in Laboratory Investigations, Vol 46, No. 6, […], 1982 (Diglio, C. A., Grammas, P., Giacomelli, F., and Wiener, J., Lab. Investigations Vol 46, No. 6, p554-563, 1982) and in J. Cell. Biol (Manuscript accepted 3/83) (Diglio, C., Wolfe, D. E., and Meyers, P. J. Cell. Biol. manuscript in press, 1983). Briefly, rat endothelial cells were dispersed from […] microvasculature by collagenase treatment. Migrating cells and cell proliferation are seen. Isolated cells are allowed to proliferate in culture until the expected "cobblestone" appearance characteristic of normal endothelial cells is obtained.
Cultured (subconfluent) normal endothelial cells are infected with Schmidt-Ruppin Rous Sarcoma virus-strain D (SR-RSV-D). A single transformed focus was isolated and recultured. The resulting transformed endothelial cell line was designated RCE-T1 (also known as SR-D1).
In the actual assay, the protocol for tumor cell adhesion to plastic or transformed endothelial cell are similar. […]

Platelet [2] = experiment: Tumor cell (B16a) induced platelet aggregation (TCIPA); type: cell-based, human; conditions: for effect on tumor cell induced platelet aggregation (in words): 400 micrograms/ml to 0.4 micrograms/ml
Description: (§1) Blood (45 ml) was drawn from the […] vein of healthy, fasted, aspirin free (at least two weeks) human volunteers into a plastic syringe containing 5 ml of 4.8% dextrose with 50 U/ml heparin buffered by 25 mM HEPES, pH 7.5. An 18 gauge needle was used to prevent hemolysis. The heparinized blood was gently mixed by inverting the syringe five times and then the blood was transfused into two 40 ml plastic centrifuge tubes and centrifuged for 10 min at 163×g. The resulting platelet rich plasma (PRP; the supernatant fraction) was decanted using an adjustable SMI pipette set at 6 ml. Platelet poor plasma (PPP) was prepared by centrifugation of PRP for 10 min at 1086×g. Platelet poor plasma was used to standardize the platelet concentration in PRP to 3×10^8 /ml. Platelet concentrations were determined using a Coulter Model ZBI cell counter.
(§2) Platelet aggregation was measured photometrically using a Sienco Model DP-247E dual channel aggregometer and recorded on a Sienco Model B-5000 dual channel recorder. Aliquots of PRP (250 microliters at 3×10^8 platelets/ml) were transferred into aggregometry cuvettes and stirred at a constant speed of 800 RPM at 37° C. Platelet aggregation studies were designed and run as individually controlled samples. BAY e 9736 was dissolved in either PEG-400 or […] (DMSO).
(§3) BAY e 9736 in PEG-400 alone was aliquoted into the cuvettes prior to the addition of the PRP. Immediately after the addition of the PRP, the cuvettes were placed into the aggregometer. After two minutes (to allow for the stabilization of the platelet preparation and mixing of the BAY e 9736), ADP or tumor cells were added in 20 microliter aliquots to induce platelet aggregation.
A 20 milligram sample of BAY e 9736 was dissolved in 1 ml of polyethylene glycol (PEG-400) and serially diluted with PEG-400 to 2, 0.2 and 0.02 mg/ml concentrations using PEG-400. Tumor cell induced platelet aggregation (TCIPA) studies were performed as described previously. The effect of BAY e 9736 on TCIPA was determined by the mixing of 2 or 5 microliter aliquots of 20, 2, 0.2 or 0.02 mg/ml BAY e 9736 and the platelet rich plasma (PRP) for approximately 3 minutes prior to the addition of tumor cells.

Platelet [3] = experiment: ADP induced platelet aggregation; type: cell-based, human; conditions: for effect on ADP induced platelet aggregation (in words): higher concentrations
Description: as §1, §2, §3
Adenosine diphosphate (ADP) was prepared as a 1 mM solution (in distilled water). A 25 microliter aliquot was added to control and BAY e 9736 treated cuvettes containing PRP. The ADP concentration used induces rapid, monophasic platelet aggregation.

COCCOC(=O)C1=C(C)NC(C)=C(C(=O)OC(C)C)C1c1cccc([N+](=O)[O-])c1 (stereo not drawn) [BAY e 9736, 1,4-dihydro-2,6-dimethyl-4-(3' nitrophenyl)-pyridine-3-(beta-methyoxyethylester)-5-(isopropyl ester)]
effect on tumor cell adhesion to endothelial cell monolayer (in words) [1]: decreased the percent of cells adhering to the plastic wells as well as the endothelial cell monolayer; also recorded: significant in all groups tested | effect on tumor cell adhesion to endothelial cell monolayer (in words) ([1]; listed as nimodipine): decreases or inhibits the adhesion of tumor cells to plastic incubation wells and to virally transformed endothelial cell monolayers | inhibition at 40 µg/mL ([1]; A = tumor cells alone): 50% | inhibition at 40 µg/mL ([1]; B = tumor cells + platelets): 65 ± 7.8% | inhibition at 40 µg/mL ([1]; C = tumor cells + PPP): 60 ± 5% | inhibition at 40 µg/mL ([1]; D = tumor cells + PPP + platelets): 53 ± 5.5% | % Inhibition of Tumor Cell Induced Platelet Aggregation (Platelet [2]; 0.00015 mg/ml final): No effect | % Inhibition of Tumor Cell Induced Platelet Aggregation (Platelet [2]; 0.004 mg/ml final (second line so printed, below 0.0015)): No effect | effect on tumor cell induced platelet aggregation (in words) (Platelet [2]): does inhibit TCIPA | effect on tumor cell induced platelet aggregation (in words) (Platelet [2]; listed as nimodipine): greatly inhibit platelet aggregation induced by tumor cells | inhibition at 1.5 µg/mL (Platelet [2]; Homo sapiens, Platelet, 0.0015 mg/ml final, x ± SEM, n = 3): 12 ± 4.1% | inhibition at 4 µg/mL (Platelet [2]; Homo sapiens, Platelet, 0.004 mg/ml final, x ± SEM, n = 3): 19 ± 5.9% | inhibition at 15 µg/mL (Platelet [2]; Homo sapiens, Platelet, 0.015 mg/ml final, x ± SEM, n = 3): 32 ± 3.5% | inhibition at 40 µg/mL (Platelet [2]; Homo sapiens, Platelet, 0.04 mg/ml final, x ± SEM, n = 3): 55 ± 7.7% | inhibition at 150 µg/mL (Platelet [2]; Homo sapiens, Platelet, 0.15 mg/ml final, x ± SEM, n = 3): 67 ± 8.5% | inhibition at 400 µg/mL (Platelet [2]; Homo sapiens, Platelet, 0.4 mg/ml final, x ± SEM, n = 3): 85 ± 9.6% | effect on platelet aggregation, dissolved in PEG-400 vs DMSO (Platelet [2]; preliminary aggregometry studies): no statistically significant differences | % Inhibition of ADP Induced Platelet Aggregation (Platelet [3]; 0.0015 mg/ml final, 0.1 mM ADP): No effect | % Inhibition of ADP Induced Platelet Aggregation (Platelet [3]; 0.004 mg/ml final (second line so printed, below 0.0015), 0.1 mM ADP): No effect | % Inhibition of ADP Induced Platelet Aggregation (Platelet [3]; 0.004 mg/ml final, 0.1 mM ADP): No effect | inhibition at 15 µg/mL (Platelet [3]; Homo sapiens, Platelet, 0.015 mg/ml final, 0.1 mM ADP, printed "No effect to 12%"): ≤ 12% | inhibition at 40 µg/mL (Platelet [3]; Homo sapiens, Platelet, 0.04 mg/ml final, 0.1 mM ADP, x ± SEM, n = 3): 31 ± 6.2% | inhibition at 150 µg/mL (Platelet [3]; Homo sapiens, Platelet, 0.15 mg/ml final, 0.1 mM ADP, x ± SEM, n = 3): 58 ± 11% | inhibition at 400 µg/mL (Platelet [3]; Homo sapiens, Platelet, 0.4 mg/ml final, 0.1 mM ADP, x ± SEM, n = 3): 69 ± 7.5% | effect on ADP induced platelet aggregation (in words) (Platelet [3]): able to significantly inhibit this aggregation | effect on ADP induced platelet aggregation (in words) (Platelet [3]; listed as nimodipine): greatly inhibit platelet aggregation induced by tumor cells and ADP

From patent publication US4690935A, “Inhibition of tumor growth and metastasis with calcium channel blocker compounds” (Wayne State University, priority 1983, dated 1987)
